target: GABAa receptor; test: GABAa receptor binding assay: displacement of [3H]-Flumazenil (RO15-1788) from rat cortical tissue; conditions: rat cortical tissue homogenate, 0.5 nM 3H-RO15-1788, 30 min at 4° C., pH 7.4
Procedure: The pharmaceutical utility of compounds of this invention are indicated by the following assay for GABAa receptor activity.
Assays are carried out as described in Thomas and Tallman (J. Bio. Chem. 156: 9838-9842 , J. Neurosci. 3: 433-440, 1983). Rat cortical tissue is dissected and homogenized in 25 volumes (w/v) of 0.05M Tris HCl buffer (pH 7.4 at 4° C.). The tissue homogenate is centrifuged in the cold (4° ) at 20,000×g for 20'. The supernatant is decanted and the pellet is rehomogenized in the same volume of buffer and again centrifuged at 20,000×g. The supernatant is decanted and the pellet is frozen at -20° C. overnight. The pellet is then thawed and rehomogenized in 25 volume (original wt/vol) of buffer and the procedure is carried out twice. The pellet is finally resuspended in 50 volumes (w/vol of 0.05M Tris HCI buffer (pH 7.4 at […]).
Incubations contain 100 μl of tissue homogenate, 100 μl of radioligand 0.5nM (^3 H-RO15-1788 [^3 H-Flumazenil] specific activity 80 Ci/mmol), drug or blocker and buffer to a total volume of 500 μl. Incubations are carried for 30 min at 4° C. then are rapidly filtered through GFB filters to separate free and bound ligand. Filters are washed twice with fresh 0.05M Tris HCI buffer (pH 7.4 at 4° C.) and counted in a liquid scintillation counter. 1.0 μM diazepam is added to some tubes to determine nonspecific binding. Data are collected in triplicate determinations. averaged and % inhibition of total specific binding is calculated. Total Specific Binding=Total-Nonspecific. In some cases, the amounts of unlabeled drugs is varied and total displacement curves of binding are carried out. Data are converted to a form for the calculation of IC50 and Hill Coefficient (nH).

First: Fc1ccccc1-c1cc2c3c([nH]c2cn1)CCCC3 [Compound 2]
Second: Fc1ccccc1-c1cc2c3c([nH]c2cn1)CCN(Cc1ccccc1)C3 [Compound 20, 8-Benzyl-2-(2-fluorophenyl)-5,6,7,9-tetrahydro-5H-pyrido[4,3-b]pyrido[4,3-d]-pyrrole]
The IC50 of the first is 4.2-fold higher: 550 nM for the first, 130 nM for the second.

First: COc1cccc(-c2cc3c4c([nH]c3cn2)CCC2(C4)OCCO2)c1 [Compound 18, 2'-(3-Methoxyphenyl)-5',6',7',9'-tetrahydro-spiro[(1,3)dioxolane-2,8'-5H-indolo[3,4-b]pyridine]]
Second: COc1cccc(-c2cc3c4c([nH]c3cn2)CCN(Cc2ccccc2)C4)c1 [Compound 24, 8-Benzyl-2-(3-methoxyphenyl)-5,6,7,9-tetrahydro-5H-pyrido[4,3-b]pyrido[4,3-d]-pyrrole]
The IC50 of the first is 2-fold lower: 120 nM for the first, 240 nM for the second. The first is the more potent here.
